For one compound, Km results are on record in US8765433B2, “Alcohol dehydrogenases (ADH) useful for fermentive production of lower alkyl alcohols” (priority 2009, dated 2014).

Each structure is given as a SMILES string.

The experiment relates to Achromobacter xylosoxidans SadB (SadB), SEQ ID NO: 26. Nature of the experiment: isobutyraldehyde reduction kinetics (A340, initial rates). In kind it is biochemical. The conditions noted are these: read-out: KM (NADH); cofactor. The text has this: This example describes preparation of ADH-gene constructs for over-expression/purification and measurement of enzyme activities using a time-course assay. Horse-liver ADH (HLADH; A-6128) was purchased from Sigma. Achromobacter xylosoxidans SadB (SadB), Saccharomyces cerevisiae ADH6 (ScADH6) and ADH7 (ScADH7), Entamoeba histolytica ADH1 (EhADH1), Bos Taurus Aldehyde Reductase (BtARD), Beijerinckia indica subsp. Indica ATCC 9039 (BiADH), Clostridium beijerinckii ADH (CbADH), Rana perezi ADH8 (RpADH8), Rattus norvegicus ADH1 (RnADH1), Thermus sp. ATN1 ADH (TADH), Phenylobacterium zucineum HLK1 ADH (PzADH), Methylocella silvestris BL2 ADH (MsADH), Acinetobacter baumannii AYE ADH (AbADH), Geobacillus sp. WCH70 ADH (GbADH), Vanderwaltozyma polyspora DSM 70294 ADH (VpADH), Mucor circinelloides ADH (McADH), and Rhodococcus erythropolis PR4ADH (ReADH) were the candidates for which subclones were prepared for protein expression and purification.
As a routine practice, the crude extracts and purified proteins were assayed for butanol oxidation activity, in order to ensure that the recombinant proteins were active throughout the purification process. […] Alcohol oxidation activities were carried out in 50 mM sodium phosphate buffer at pH 8.8 and aldehyde reduction reactions were assayed in 190 mM potassium phosphate buffer at pH 7.0. Depending on the nature of reaction being carried out, the enzyme and cofactor stocks were diluted in the reaction buffers at the respective pHs. Either buffer or cell extract prepared from the proprietary E. coli strain (with no ADH plasmid) was used as the negative control for assays with purified protein and cell-free extracts, respectively.
Kinetic constants of the ADH enzymes were calculated and compared to identify those candidate ADH enzymes with the most desirable properties for the conversion of isobutyraldehyde to isobutanol in the last step of the engineered pathway for isobutanol production. The assays for determining the kinetic constants were carried out using initial rates from the assays described above. […] The concentration of a given enzyme was such that it was conducive for the measurement of initial velocities over a 1-min time course. For each enzyme, Michaelis-Menten plots were generated with a broad range of substrate concentrations. Rough estimates of KM were obtained, based on which the assays were redesigned so as to use substrate concentrations in the range 0.5 to 10 times the KM value, to be able to obtain the appropriate kinetic constants. […] Reactions with isobutanol substrate were performed at 30° C. in 50 mM Sodium phosphate buffer, pH 8.8, containing 7.5 mM NAD. The Enzyme kinetics module (Version 1.3) of SigmaPlot 11 (Systat Software, Inc.) was used to fit data to Michaelis-Menten equations and calculate the kinetic constants. The kcat/KM is derived from the individual numbers of kcat and KM and not an experimentally determined value.
For those enzymes marked with an asterisk in Table 7, at least 3 assays were performed with separate preparations of the enzyme. All other numbers are values from either one assay or are averages from 2 assays performed with the same enzyme sample.

Take `NC(=O)C1=CN([C@@H]2O[C@H](COP(=O)(O)OP(=O)(O)OC[C@H]3O[C@@H](n4cnc5c(N)ncnc54)[C@H](O)[C@@H]3O)[C@@H](O)[C@H]2O)C=CC1` [NADH, reduced nicotinamide adenine dinucleotide]: the Km came out at 20 µM.
